One may read the refractive index as a measure of how strongly the sample bends light.

The conditions of series [1]: cited from earlier work.
The nature of series [2]: Aqueous behavior of ether/water blends, pH 1 to 13, chilled. The series is classed as physicochemical. The note with it: equal mass ratio with water, pH adjusted from 1 to 13, chilled to −15° C. As for the experimental part: The blends were pH adjusted from 1 to 13 and then chilled to −15° C.
The nature of series [3]: Freezing points of bis-N-ethyl pyrrolidone ether/water blends by differential scanning calorimetry. The series is classed as physicochemical. As for the experimental part:
The freezing points of bis-N-ethyl pyrrolidone ether/water blends were measured using differential scanning calorimetry. All measurements were conducted under nitrogen purge from 25° C. to −80° C. at a cooling rate of 5° C./min using a Q2000 calorimeter by TA Instruments.
Freezing depressions were measured for bis-N-ethyl pyrrolidone ether/water blends (Table 3).
A general note: In DSC, transitions show as peaks or steps in heat flow.

The conditions of series [4]: equal volume ratio.
Excerpt: The blends were visually observed to determine miscibility of the ether with the various solvents.
Series [5] in a line: Gas hydrate inhibitor and anti-agglomerant test. The note with it: 0.5% and 1.0% (w/w NaCl brine solution), 123 bar, 2.8° C. The method, then: Bis-N-ethyl pyrrolidone ether was assessed as a gas hydrate inhibitor and as an anti-agglomerant. A three-part fluid blend was prepared having equal mass amounts of Troika crude oil (black oil), synthetic condensate, and a sodium chloride brine solution into which the ether was dissolved. Ether addition levels were studied two times at 0.5% (w/w NaCl brine solution), and one time at 1.0% (w/w NaCl brine solution). The abovementioned fluid blend blanketed with Green Canyon gas (Table 6) at a pressure of 123 bar and maintained at 2.8° C. for the tests.

Series [6] is described as follows: Freezing point depression of glycerol (or other polyol)-water blends with added ether. The class given is physicochemical. As for the experimental part: Different binary blends of glycerol and water are prepared, and then bis-N-ethyl pyrrolidone ether is added in 1% increments from 0% to 50% of the ether. The freezing point depression of these compositions is measured using a suitable differential thermometer (e.g., a thermocouple).
As a specific subclass to Example 5, a eutectic blend of glycerol-water is prepared, having about 65% glycerol (by weight) and a freezing point depression of about −46° C. Bis-N-ethyl pyrrolidone ether is added in 1% increments from 0% to 50% added ether. The freezing point depression of these compositions is measured using a suitable differential thermometer (e.g., a thermocouple).
[…], replacing glycerol with ethylene glycol, propylene glycol, or pentaerythritol.

Entries after “also recorded” stand apart in the source; their conditions may differ. Like-named read-outs stand apart in the source and are kept apart here.

Consider `OCCO` [ethylene glycol], for which the freezing point in series [1] (11% in water (by mass)) is −3 °C; in series [1] (22% in water (by mass)), −8 °C; in series [1] (32% in water (by mass)) it was −16 °C; in series [1] (43% in water (by mass)) it was −25 °C; in series [1] (53% in water (by mass)) it was −37 °C; in series [1] (63% in water (by mass)) it was −55 °C. In addition, the freezing point in series [1] (ethylene glycol and water in equal mass ratio) is −32 °C.

Consider `O=C1CCCN1CCOCCN1CCCC1=O` [bis-N-ethyl pyrrolidone ether], for which the “phase behavior of blend with water” value in series [2] was “single phase”. Besides, the freezing point in series [3] (1% in water (by mass)) is −9.3 °C; in series [3] (5% in water (by mass)) it was −7.9 °C; in series [3] (10% in water (by mass)) it was −13.5 °C; in series [3] (20% in water (by mass)) it was −13.3 °C; in series [3] (30% in water (by mass)), −18.2 °C; in series [3] (40% in water (by mass)), −28.6 °C. Further, the freezing point in series [3] (50% in water (by mass)) is −43.2 °C; the freezing point in series [3] (60% in water (by mass)) was <−80 °C; the freezing point in series [3] (66% in water (by mass)) is <−80 °C; the freezing point in series [3] (75% in water (by mass)) is <−80 °C; the freezing point in series [3] (100% bis-N-ethyl pyrrolidone ether) was <−80 °C; the freezing point (neat) was <−80 °C. The miscibility observation entry in series [4] (2-propanol) is on record as “miscible”; in series [4] (acetone), “miscible”; in series [4] (cyclohexane), “immiscible”; in series [4] (cyclohexane, listed as bis-N-ethyl pyrrolidone), “insoluble”; in series [4] (ethyl acetate), “miscible”; in series [4] (hexane), “immiscible”. The miscibility observation entry in series [4] (hexane, listed as bis-N-ethyl pyrrolidone) is given as “insoluble”; in series [4] (methanol), “miscible”; in series [4] (methyl ethyl ketone) it was “miscible”; in series [4] (toluene), “miscible”; in series [4] (water), “miscible”. In addition, the “formation of gas hydrates and agglomerants” value in series [5] is given as “considerably limited gas hydrate formation; also recorded: very small”. Moreover, where the note is “50% aqueous solution”, the “pH in a 50% aqueous solution” value is listed as 9.5. In addition, the viscosity (Cannon Fenske viscometer, #300 tube) is on record as 96.4 cP^†. Moreover, for the setting “neat”, the “color (APHA)” value was >500. The refractive index entry is listed as “around 1.51” (neat) and 1.5063 (neat, listed as bis-N-ethyl pyrrolidone). Also, under “neat”, the specific gravity is on record as 1.148. Under “neat”, the thermal decomposition temperature came to 275 °C. Also, the physical state result (neat, ambient conditions) is listed as “liquid (ambient conditions)”. In addition, the “surface tension (static)” value (plate) worked out at 50.2 and the “surface tension (static)” value (ring) was determined as 51.1. Also, in series [6] (ether added 0% to 50% to eutectic glycerol-water blend (about 65% glycerol)), the freezing point depression entry was “lower than −46 °C”. The “freezing point depression compared to glycerol-water binary blends” value in series [6] (ether added 0% to 50% to glycerol-water blends) was “further depress the freezing point depression”. For the same molecule, the “freezing point depression compared to solutions without the ether” value in series [6] (glycerol replaced with ethylene glycol, propylene glycol, or pentaerythritol) was “lowers the freezing point depression”.

The record behind these values is US9351484B2, “N-alkyl lactam ethers, and compositions and uses thereof” (priority 2010, dated 2016).
